TGI data for 8 compounds are collected here from PubChem BioAssay (NCI).

Among the test systems are 786-0 renal; OVCAR-3 ovarian; SK-MEL-2 melanoma; SF-268 CNS; ACHN renal; CCRF-CEM leukemia; M14 melanoma; EKVX NSCLC; CAKI-1 renal; NCI-H23 lung; SNB-75 CNS; SK-MEL-5 melanoma; SF-295 CNS; RXF 393 renal; MDA-MB-231 breast; A498 renal; UACC-62 melanoma; PC-3 prostate; NCI/ADR-RES ovarian.
Assay in all cases: NCI-60 cell line screen, 48 h

SMILES strings stand for the structures.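 Tested at 5 concentrations; 48 h exposure; 96-well plates; endpoints linearly interpolated, else capped at highest concentration. The concentration for full growth arrest is given as TGI.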

For `CCCN(CCC)c1c([N+](=O)[O-])cc(C(=O)N(CCO)CCO)cc1[N+](=O)[O-]`, the TGI in the test with 786-0 renal, in the test with OVCAR-3 ovarian, in the test with SK-MEL-2 melanoma, in the test with SF-268 CNS, with ACHN renal and in the test on CCRF-CEM leukemia was over 100 µM each time. For the same compound, the TGI in the test on M14 melanoma, with EKVX NSCLC, in the test with CAKI-1 renal, in the test with NCI-H23 lung, with SNB-75 CNS and in the test on SK-MEL-5 melanoma was over 100 µM throughout. In addition, the TGI with SF-295 CNS is over 100 µM.

As to `Cc1ccc2oc3c(c(Br)c(Br)n3C)c(=O)c2c1`, the TGI is 30.3 µM in the test on 786-0 renal; 46.8 µM in the test with OVCAR-3 ovarian; 89 µM with SK-MEL-2 melanoma; 31.4 µM in the test with RXF 393 renal; over 100 µM in the test on SF-268 CNS; 43.5 µM in the test on MDA-MB-231 breast. Moreover, the TGI in the test on A498 renal was 41.3 µM; in the test with ACHN renal, 32.1 µM; in the test on CCRF-CEM leukemia, over 100 µM; with M14 melanoma it was over 100 µM; in the test on EKVX NSCLC, 44.2 µM; with UACC-62 melanoma, 52.3 µM. The TGI in the test with CAKI-1 renal was 63.8 µM; with NCI-H23 lung it was 46.3 µM; with PC-3 prostate, over 100 µM; with SK-MEL-5 melanoma, over 100 µM; in the test with NCI/ADR-RES ovarian, 52.5 µM; in the test with SF-295 CNS, 47.2 µM.

`C=CCN(c1cc(OC)c2[nH]c(C(=O)OCC)c(C)c2c1[N+](=O)[O-])S(C)(=O)=O`: the TGI in the test on 786-0 renal is over 100 µM; in the test on OVCAR-3 ovarian it was 80.2 µM; in the test with SK-MEL-2 melanoma it was 51.3 µM; in the test with RXF 393 renal, 45.9 µM; in the test on SF-268 CNS it was over 100 µM; with MDA-MB-231 breast, 33.7 µM. For the same compound, the TGI in the test on A498 renal is 65.6 µM; with ACHN renal, 69.5 µM; in the test on CCRF-CEM leukemia, over 100 µM; with M14 melanoma, over 100 µM; with EKVX NSCLC it was 46.2 µM; with UACC-62 melanoma, 61.7 µM. In addition, the TGI in the test on CAKI-1 renal was over 100 µM; with NCI-H23 lung it was over 100 µM; in the test on PC-3 prostate, 38.1 µM; with SNB-75 CNS, 60 µM; in the test with SK-MEL-5 melanoma, 44.8 µM; in the test on NCI/ADR-RES ovarian, 72.6 µM. The TGI in the test on SF-295 CNS was over 100 µM.

In the case of `N#CCN(CC#N)C1CC=CCC1N(CC#N)CC#N` (configuration not stated), the TGI in the test on 786-0 renal, in the test on OVCAR-3 ovarian, in the test with SK-MEL-2 melanoma, in the test on RXF 393 renal, with SF-268 CNS and with MDA-MB-231 breast was over 100 µM in each case. Also, the TGI with ACHN renal, in the test on CCRF-CEM leukemia, in the test with M14 melanoma, with EKVX NSCLC, with UACC-62 melanoma and in the test with CAKI-1 renal was over 100 µM in each case. For the same compound, the TGI in the test on NCI-H23 lung, in the test with PC-3 prostate, with SK-MEL-5 melanoma, with NCI/ADR-RES ovarian and in the test on SF-295 CNS was over 100 µM in each case.

Turning to `CC1(C)CC(=O)c2c(nc3c(ccc4ccccc43)c2-c2ccc(NC(=O)CCCCC(=O)Nc3ccc(-c4c5c(nc6c4ccc4ccccc46)CC(C)(C)CC5=O)cc3)cc2)C1`, the TGI with 786-0 renal was over 100 µM; in the test with OVCAR-3 ovarian, 80.8 µM; with SK-MEL-2 melanoma, 92.6 µM; in the test with RXF 393 renal it was over 100 µM; in the test on SF-268 CNS, over 100 µM; in the test with MDA-MB-231 breast, 64.6 µM. Moreover, the TGI with ACHN renal is 69.1 µM; with CCRF-CEM leukemia, 78.3 µM; in the test on M14 melanoma, over 100 µM; in the test with EKVX NSCLC, 67.5 µM; in the test with CAKI-1 renal, over 100 µM; with PC-3 prostate, over 100 µM. For the same compound, the TGI was 53.1 µM in the test with SNB-75 CNS, over 100 µM in the test with SK-MEL-5 melanoma, 77.6 µM with NCI/ADR-RES ovarian and 41.6 µM in the test with SF-295 CNS.

Consider `c1ccc2c(c1)ccn1ccc3c4ccccc4nc-3c21`, for which the TGI with 786-0 renal was determined as 1.31 µM; in the test with OVCAR-3 ovarian, 2.92 µM; in the test on SK-MEL-2 melanoma it was 2.54 µM; with RXF 393 renal it was 2.39 µM; in the test with SF-268 CNS, 2.29 µM; in the test with MDA-MB-231 breast, 2.2 µM. For the same compound, the TGI with A498 renal stood at 0.892 µM; in the test with ACHN renal, 1.87 µM; in the test on CCRF-CEM leukemia it was 1.43 µM; in the test on M14 melanoma, 1.51 µM; in the test with EKVX NSCLC, 1.13 µM; with UACC-62 melanoma, 3.81 µM. Besides, the TGI with CAKI-1 renal came to 2.09 µM; with NCI-H23 lung, 2.12 µM; in the test with PC-3 prostate it was 1.67 µM; in the test on SNB-75 CNS it was 2.15 µM; in the test with SK-MEL-5 melanoma, 1.71 µM; with NCI/ADR-RES ovarian it was 2.17 µM. The compound further returned a TGI with SF-295 CNS of 2.03 µM.

In the case of `CCOC(=O)C(C)c1nc2ccc(C(F)(F)F)cc2[nH]c1=O` (configuration not stated), the TGI in the test on 786-0 renal, with OVCAR-3 ovarian, with SK-MEL-2 melanoma, with RXF 393 renal, with SF-268 CNS and with MDA-MB-231 breast was over 100 µM each time. The TGI in the test on A498 renal, with ACHN renal, in the test with CCRF-CEM leukemia, with M14 melanoma, in the test on EKVX NSCLC and in the test with UACC-62 melanoma was over 100 µM throughout. Further, the TGI in the test on NCI-H23 lung, in the test with PC-3 prostate, with SNB-75 CNS, in the test with SK-MEL-5 melanoma, in the test with NCI/ADR-RES ovarian and with SF-295 CNS was over 100 µM in each case.

With `O=C(Nc1sccc1S(=O)(=O)c1ccccc1)c1ccccc1`, the TGI in the test with 786-0 renal, with OVCAR-3 ovarian, with SK-MEL-2 melanoma, in the test with SF-268 CNS, in the test with MDA-MB-231 breast and with A498 renal was over 100 µM throughout. Also, the TGI in the test with ACHN renal, in the test with M14 melanoma, in the test with EKVX NSCLC, with UACC-62 melanoma, in the test on CAKI-1 renal and with NCI-H23 lung was over 100 µM each time. Further, the TGI in the test on PC-3 prostate, in the test on SNB-75 CNS, with SK-MEL-5 melanoma, with NCI/ADR-RES ovarian and in the test with SF-295 CNS was over 100 µM in each case.
